From patent publication US8592456B2 (4SC Discovery GmbH, priority 2011, dated 2013) come the findings set out here.

This assay relates to PBMC (T cell proliferation). Kind of assay: T cell proliferation assay, PHA-stimulated human PBMC (BrdU ELISA). It is filed as cell-based. The gist of the method: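 Healthy-donor human PBMC, Ficoll-isolated, seeded 1×10^5 cells/well in RPMI1640 with 10% dialyzed FCS, stimulated with 2 μg/ml PHA alongside test compound. Proliferation read after 48 hours by BrdU ELISA.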
Where [1] appears, read: human PBMC, 2 μg/ml PHA, 48 hours, BrdU, read-out: D: IC50 (Tcell proliferation).
Where [2] appears, read: PHA-stimulated human PBMC, 48 hours, BrdU, column D, activity classes 1-4, read-out: IC50 (Tcell proliferation).

Like-named read-outs stand apart in the source and are kept apart here.

For `CC(C)OC(=O)c1c(-c2c(F)cccc2Cl)noc1-c1cnn(-c2ccncc2)c1C(F)(F)F` [Example B-82, isopropyl 3-(2-chloro-6-fluorophenyl)-5-(1-(pyridin-4-yl)-5-(trifluoromethyl)-1H-pyrazol-4-yl)isoxazole-4-carboxylate], the IC50 under setting [1] fell in the range of 0.01 to 0.1 µM.

On to `Fc1cccc(Cl)c1-c1noc(-c2cnn(-c3ccncc3)c2C(F)(F)F)c1Br` [Example B-83, 4-bromo-3-(2-chloro-6-fluorophenyl)-5-(1-(pyridin-4-yl)-5-(trifluoromethyl)-1H-pyrazol-4-yl)isoxazole], for which the IC50 under setting [1] is 1 to 10 µM. The same measure, in the same setting: the value for `CCOC(=O)c1c(-c2c(F)cccc2Cl)noc1-c1cnn(-c2ccccn2)c1C(F)(F)F` [Example B-84, ethyl 3-(2-chloro-6-fluorophenyl)-5-(1-(pyridin-2-yl)-5-(trifluoromethyl)-1H-pyrazol-4-yl)isoxazole-4-carboxylate] was less than 0.01 µM; that for `O=C(O)c1c(-c2c(F)cccc2Cl)noc1-c1cnn(Cc2ccccc2F)c1C(F)(F)F` [Example B-86, 3-(2-chloro-6-fluorophenyl)-5-(1-(2-fluorobenzyl)-5-(trifluoromethyl)-1H-pyrazol-4-yl)isoxazole-4-carboxylic acid] was 1 to 10 µM.

With `COC(=O)c1c(-c2c(F)cccc2Cl)noc1-c1cnn(-c2cccc(NC(C)=O)c2)c1C(F)(F)F` [Example B-89, 5-(1-(3-acetamidophenyl)-5-(trifluoromethyl)-1H-pyrazol-4-yl)-3-(2-chloro-6-fluorophenyl)isoxazole-4-carboxylate], the IC50 under setting [1] was in the range of 0.1 to 1 µM. On the same count and under the same terms, the value for `CCOC(=O)c1c(-c2c(F)cccc2Cl)noc1-c1cnn(-c2cccc([N+](=O)[O-])c2)c1C(F)(F)F` [Example B-90, ethyl 3-(2-chloro-6-fluorophenyl)-5-(1-(3-nitrophenyl)-5-(trifluoromethyl)-1H-pyrazol-4-yl)isoxazole-4-carboxylate] was 0.01 to 0.1 µM; that for `COC(=O)c1c(-c2c(F)cccc2Cl)noc1-c1cnn(-c2cccc(N)c2)c1C(F)(F)F` [Example B-92, methyl 5-(1-(3-aminophenyl)-5-trifluoromethyl)-1H-pyrazol-4-yl)-3-(2-chloro-6-fluorophenyl)isoxazole-4-carboxylate] was 0.01 to 0.1 µM; that for `CNC(=O)c1c(-c2c(F)cccc2Cl)noc1-c1cnn(-c2ccccn2)c1C(F)(F)F` [Example B-93, 3-(2-chloro-6-fluorophenyl)-N-methyl-5-(1-(pyridin-2-yl)-5-(trifluoromethyl)-1H-pyrazol-4-yl)isoxazole-4-carboxamide] was 1 to 10 µM.

`CCOC(=O)c1c(-c2c(F)cccc2Cl)noc1-c1cnn(-c2ccc([N+](=O)[O-])cc2)c1C(F)(F)F` [Example B-94, ethyl 3-(2-chloro-6-fluorophenyl)-5-(1-(4-nitrophenyl)-5-(trifluoromethyl)-1H-pyrazol-4-yl)isoxazole-4-carboxylate]: the IC50 under setting [1] lay within 1 to 10 µM. For `CCOC(=O)c1c(-c2c(F)cccc2Cl)noc1-c1cnn(-c2ccccc2[N+](=O)[O-])c1C(F)(F)F` [Example B-95, 3-(2-chloro-6-fluorophenyl)-5-(1-(2-nitrophenyl)-5-(trifluoromethyl)-1H-pyrazol-4-yl)isoxazole-4-carboxylate], the IC50 under setting [1] was in the range of 0.1 to 1 µM. Same read-out and setting: the value for `CCOC(=O)c1c(-c2c(F)cccc2Cl)noc1-c1cnn(CC2CCCO2)c1C(F)(F)F` (stereo not drawn) [Example B-96, ethyl 3-(2-chloro-6-fluorophenyl)-5-(1-((tetrahydrofuran-2-yl)methyl)-5-(trifluoromethyl)-1H-pyrazol-4-yl)isoxazole-4-carboxylate] was 0.01 to 0.1 µM. On the same count and under the same terms, the value for `CCOC(=O)c1c(-c2c(F)cccc2Cl)noc1-c1cnn(CCN2CCOCC2)c1C(F)(F)F` [Example B-97, ethyl 3-(2-chloro-6-fluorophenyl)-5-(1-(2-morpholinoethyl)-5-(trifluoromethyl)-1H-pyrazol-4-yl)isoxazole-4-carboxylate] was 1 to 10 µM.

Regarding `CCOC(=O)c1c(-c2c(F)cccc2Cl)noc1-c1cnn(-c2ccccc2N)c1C(F)(F)F` [Example B-98, ethyl 5-(1-(2-aminophenyl)-5-(trifluoromethyl)-1H-pyrazol-4-yl)-3-(2-chloro-6-fluorophenyl)isoxazole-4-carboxylate], the IC50 (Homo sapiens, 48 h, read-out: D: IC50 (Tcell proliferation)) fell in the range of 0.01 to 0.1 µM.

For `CCOC(=O)c1c(-c2c(F)cccc2Cl)noc1-c1cnn(-c2ccc(NC(C)=O)cc2)c1C(F)(F)F` [Example B-99, ethyl 5-(1-(4-acetamidophenyl)-5-(trifluoromethyl-1H-pyrazol-4-yl)-3-(2-chloro-6-fluorophenyl)isoxazole-4-carboxylate], the IC50 under setting [1] was 1 to 10 µM. Still for that read-out and setting: next, `CCOC(=O)c1c(-c2c(F)cccc2Cl)noc1-c1cnn(-c2cccc(C(N)=O)c2)c1C(F)(F)F` [Example B-100, ethyl 5-(1-(3-carbamoylphenyl)-5-(trifluoromethyl)-1H-pyrazol-4-yl)-3-(2-chloro-6-fluorophenyl)isoxazole-4-carboxylate]: 1 to 10 µM; `NC(=S)c1c(-c2c(F)cccc2Cl)noc1-c1cnn(-c2ccccc2Cl)c1C(F)(F)F` [Example B-101, 3-(2-chloro-6-fluorophenyl)-5-(1-(2-chlorophenyl)-5-(trifluoromethyl)-1H-pyrazol-4-yl)isoxazole-4-carbothioamide]: 1 to 10 µM; `NC(=S)c1c(-c2c(F)cccc2Cl)noc1-c1cnn(-c2ccccc2F)c1C(F)(F)F` [Example B-102, 3-(2-chloro-6-fluorophenyl)-5-(1-(2-fluorophenyl)-5-(trifluoromethyl)-1H-pyrazol-4-yl)isoxazole-4-carbothioamide]: 0.1 to 1 µM.

With `CC(C)Cn1ncc(-c2onc(-c3c(F)cccc3Cl)c2-c2nnn[nH]2)c1C(F)(F)F` [Example I-1, 3-(2-chloro-6-fluorophenyl)-5-(1-isobutyl-5-(trifluoromethyl)-1H-pyrazol-4-yl)-4-(1H-tetrazol-5-yl)isoxazole], the IC50 under setting [2] lay in the range of 1 to 10 µM. In the case of `Fc1cccc(-n2ncc(-c3onc(-c4c(F)cccc4Cl)c3-c3nnn[nH]3)c2C(F)(F)F)c1` [Example I-2, 3-(2-chloro-6-fluorophenyl)-5-(1-(3-fluorophenyl)-5-(trifluoromethyl)-1H-pyrazol-4-yl)-4-(1H-tetrazol-5-yl)isoxazole], the IC50 under setting [2] was 1 to 10 µM. Still for that read-out and setting: next, `Fc1cccc(Cl)c1-c1noc(-c2cnn(-c3cccc(Cl)c3)c2C(F)(F)F)c1-c1nnn[nH]1` [Example I-3, 3-(2-chloro-6-fluorophenyl)-5-(1-(3-chlorophenyl)-5-(trifluoromethyl)-1H-pyrazol-4-yl)-4-(1H-tetrazol-5-yl)isoxazole]: 1 to 10 µM; `Fc1cccc(Cl)c1-c1noc(-c2cnn(-c3cccc(Cl)c3)c2C(F)(F)F)c1-c1nccs1` [Example I-5, 3-(2-chloro-6-fluorophenyl)-5-(1-(3-chlorophenyl)-5-(trifluoromethyl)-1H-pyrazol-4-yl)-4-(thiazol-2-yl)isoxazole]: less than 0.01 µM; `Fc1cccc(-n2ncc(-c3onc(-c4c(F)cccc4Cl)c3-c3nnco3)c2C(F)(F)F)c1` [Example I-7, 2-(3-(2-chloro-6-fluorophenyl)-5-(1-(3-fluorophenyl)-5-(trifluoromethyl)-1H-pyrazol-4-yl)isoxazol-4-yl)-1,3,4-oxadiazole]: 0.01 to 0.1 µM. The same measure, in the same setting: next, `Fc1cccc(Cl)c1-c1noc(-c2cnn(-c3cccc(Cl)c3)c2C(F)(F)F)c1-c1cnco1` [Example I-8, 3-(2-chloro-6-fluorophenyl)-5-(1-(3-chlorophenyl)-5-(trifluoromethyl)-1H-pyrazol-4-yl)-4-(oxazol-5-yl)isoxazole]: less than 0.01 µM. `Oc1csc(-c2c(-c3c(F)cccc3Cl)noc2-c2cnn(-c3cccc(F)c3)c2C(F)(F)F)n1` [Example I-9, 2-(3-(2-chloro-6-fluorophenyl)-5-(1-(3-fluorophenyl)-5-(trifluoromethyl)-1H-pyrazol-4-yl)isoxazol-4-yl)thiazol-4-ol]: the IC50 (Homo sapiens, 48 h, read-out: IC50 (Tcell proliferation)) was 0.1 to 1 µM. `COc1csc(-c2c(-c3c(F)cccc3Cl)noc2-c2cnn(-c3cccc(F)c3)c2C(F)(F)F)n1` [Example I-10, 3-(2-chloro-6-fluorophenyl)-5-(1-(3-fluorophenyl)-5-(trifluoromethyl)-1H-pyrazol-4-yl)-4-(4-methoxythiazol-2-yl)isoxazole]: the IC50 under setting [2] was 0.01 to 0.1 µM.

As for `Cc1nnc(-c2c(-c3c(F)cccc3Cl)noc2-c2cnn(-c3ccccc3F)c2C(F)(F)F)o1` [Example I-11, 2-(3-(2-chloro-6-fluorophenyl)-5-(1-(2-fluorophenyl)-5-(trifluoromethyl)-1H-pyrazol-4-yl)isoxazol-4-yl)-5-methyl-1,3,4-oxadiazole], under setting [2], the IC50 lay within 0.1 to 1 µM.

For the molecule `Cc1nnc(-c2c(-c3c(F)cccc3Cl)noc2-c2cnn(-c3ccccc3F)c2C(F)(F)F)s1` [Example I-12, 3-(2-chloro-6-fluorophenyl)-5-(1-(2-fluorophenyl)-5-(trifluoromethyl)-1H-pyrazol-4-yl)-4-(5-methyl-1,3,4-thiadiazol-2-yl)isoxazole], the IC50 under setting [2] was in the range of 0.1 to 1 µM.

For `Fc1cccc(-n2ncc(-c3onc(-c4c(F)cccc4Cl)c3-c3ccoc3)c2C(F)(F)F)c1` [Example I-13, 3-(2-chloro-6-fluorophenyl)-5-(1-(3-fluorophenyl)-5-(trifluoromethyl)-1H-pyrazol-4-yl)-4-(furan-3-yl)isoxazole], the IC50 under setting [2] was 1 to 10 µM. Regarding `Fc1cccc(-n2ncc(-c3onc(-c4c(F)cccc4Cl)c3-c3ccccc3)c2C(F)(F)F)c1` [Example I-14, 3-(2-chloro-6-fluorophenyl)-5-(1-(3-fluorophenyl)-5-(trifluoromethyl)-1H-pyrazol-4-yl)-4-phenylisoxazole], the IC50 under setting [2] lay within 0.1 to 1 µM. Still for that read-out and setting: the value for `Fc1ccccc1-n1ncc(-c2onc(-c3c(F)cccc3Cl)c2-c2nnco2)c1C(F)(F)F` [Example I-15, 2-(3-(2-chloro-6-fluorophenyl)-5-(1-(2-fluorophenyl)-5-(trifluoromethyl)-1H-pyrazol-4-yl)isoxazol-4-yl)-1,3,4-oxadiazole] was 0.1 to 1 µM.
